Laboratory results reported in patent publication US20130053435A1, “Methods of Treating Alcohol Intoxication, Alcohol Use Disorders and Alcohol Abuse Which Comprises the Administration of Dihydromyricetin” (priority 2011, published 2013).
Several values for one entry are separate records, joined by “and”; a condition that tells them apart may be missing. Equal values may be shown once. Read-outs that look alike come from different tables or passages of the source.

Experiments:
GABAARs = assay: Whole-cell patch-clamp, DGCs in hippocampal slices 48 hr after in vivo treatment; type: cell-based, rat; conditions: 48 hr withdrawal
Description: Transverse slices (400 μm) of dorsal hippocampus were obtained with a Vibratome (VT 100, Technical Products International, St. Louis, Mo.) and standard techniques known in the art. Slices were continuously perfused with artificial cerebrospinal fluid (ACSF). See Liang, J., et al. (2007) J Neurosci 27:12367-12377.
Whole-cell patch-clamp recordings were obtained at 34±0.5° C. from cells located in the DG layer at a holding potential of −70 mV, during perfusion with artificial cerebrospinal fluid (ACSF, 125 mM NaCl, 2.5 mM KCl, 2 mM CaCl2, 2 mM MgCl2, 26 mM NaHCO3, and 10 mM D-glucose). The ACSF was continuously bubbled with 95% O2-5% CO2 to ensure adequate oxygenation of slices and a pH of 7.4. Patch electrodes were pulled from thin-wall borosilicate glass pipettes with resistances of 7.5-9 MΩ and were filled with pipette solution (i.e. 137 mM CsCl, 2 mM MgCl2, 1 mM CaCl2, 11 mM EGTA, 10 mM HEPES and 3 mM ATP, pH adjusted to 7.30 with CsOH). Signals were recorded in voltage-clamp mode with a […] amplifier (Molecular Devices, Sunnyvale, Calif.). Whole cell access resistances were in the range of <25 MΩ before electrical compensation by about 70%. During voltage-clamp recordings, access resistance was monitored by measuring the size of the capacitative transient in response to a 5 mV step command and the data were abandoned if changes >20% were encountered. At least 10 min was allowed for equilibration of the pipette solution with the intracellular milieu before commencing mIPSC recordings. Intracellular signal was low-pass filtered at 3 kHz and data were acquired with Digidata 1440A and software CLAMPEX 10 (Molecular Devices) at a sampling frequency of 20 kHz.
Pharmacologically-isolated GABAAR-mediated mIPSCs were recorded as previously described (Liang (2007) and Shen (2011)). […] Data were analyzed using the Clampfit (Version 9.0, Molecular Devices) and the MiniAnalysis Program (versions 6.0.7, Synaptosoft, Decatur, Ga.).
The MiniAnalysis program (Synaptosoft, Decatur, Ga.) was used to analyze mIPSCs. Itonic is the averaged baseline currents of a given recording period. Itonic amplitude was calculated as the difference between the holding currents measured before and after picrotoxin (100 μM) or bicuculline (10 μM). See Wei, W., et al. (2004) J Neurosci 24, 8379-8382; Liang (2007); and Shen (2011). Briefly, the recordings were low-pass filtered off-line (Clampfit software) at 2 kHz. The mIPSCs were detected (Mini Analysis Program, version 6.0.7) with threshold criteria of 8 pA amplitude and 20 pA*ms charge transfer. The frequency of mIPSCs was determined from all automatically detected events in a given 100 s recording period. For kinetic analysis, only single event mIPSCs with a stable baseline, sharp rising phase (10 to 90% rise time), and exponential decay were chosen during visual inspection of the recording trace. Double and multiple peak mIPSCs were excluded. At least 100 individual mIPSC events were recorded under each experimental condition. The mIPSC kinetics was obtained from analysis of the averaged chosen single events aligned with half rise time in each cell. Decay time constants were obtained by fitting a double exponential to the falling phase of the averaged mIPSCs. Itonic magnitudes were obtained from the averaged baseline current of a given recording period. Itonic amplitude was calculated as the difference between the holding currents measured before and after the application of picrotoxin (50 μM) or bicuculline (10 μM). See Liang J et al (2007); Shen (2011); Hamann (2002); and Mangan P S, et al. (2005) Mol Pharmacol 67(3):775-788. The investigator performing the recordings and mIPSC analysis was blind to the treatment (vehicle, EtOH, E+D, or D) that the rats received.
After 48 hr withdrawal, whole-cell GABAAR-mediated currents were recorded on DGCs in hippocampal slices. In the vehicle group, bath application of EtOH (60 mM) enhanced Itonic from 28.8±3.1 to 62.1±3.3 pA (FIG. 13, panels A, G). […]

[1] = test system: EtOH-induced LORR in rats
Description: See Kakihana R, et al. (1966) Science 154(756):1574-1575). Briefly, after drug injection, rats were placed in the supine position in a V-shaped support. LORR onset time was taken from the endpoint of drug injection (i.p.). LORR duration ended when the animal was able to flip over three times in 30 s. LORR assays were blindly performed. LORR durations were reported as mean (min)±SEM.
Further LORR assays were conducted as follows.
Additional pre-treatment and post-treatment experiments were also conducted.
See Hunkeler, W., et al. (1981) Nature 290:514-516.

[2] = test system: voluntary EtOH consumption in rats; assay: Intermittent access two-bottle choice voluntary EtOH intake; type: in vivo, rat; conditions: for EtOH consumption: E+D/water sub-group switched after 4 weeks
Description: All fluids were presented in 100 ml graduated glass cylinders with stainless-steel drinking spouts inserted 15 min after the lights went off in the reversed light/dark cycle room. Bottles were weighed 30 min and 24 hrs after the fluids were presented. Each rat was weighed daily to monitor health and calculate the grams of ethanol intake per kilogram of body weight.
Sweetener (2 pk/L) was added to every bottle for the first week. Sweetener (1 pk/L) was added to every bottle for the second week. […] Rats had unlimited access to two bottles of water between the EtOH-access periods. The placement of the EtOH bottle was alternated each EtOH drinking session to control for side preferences. Rats were maintained on 20% EtOH intermittent access two-bottle choice paradigm for 7 weeks (21 EtOH-access sessions). […] The rest of the EtOH group continued EtOH-access sessions. EtOH consumption was expressed as grams of EtOH consumed per kilogram of body weight. Rats access to two bottles of water were taken as the control-group. There was no significant difference in body weight between the control and the EtOH-drinking rats at the end of the experiments.

[3] = DHM 1 mg/kg i.p. 30 min after EtOH i.p.
[4] = DHM 1 mg/kg i.p. 30 min prior to EtOH 3 g/kg i.p.

O=C1c2c(O)cc(O)cc2O[C@H](c2cc(O)c(O)c(O)c2)[C@H]1O [DHM, (2R,3R)-3,5,7-trihydroxy-2-(3,4,5-trihydroxyphenyl)-2,3-dihydrochromen-4-one]
mIPSC area after acute EtOH (60 mM) (GABAARs; EtOH+DHM group): 0.78±0.02 nC | mIPSC area before acute EtOH (GABAARs; EtOH+DHM group): 0.70±0.03 nC | Itonic before acute EtOH (GABAARs; rats treated with EtOH (5 g/kg) + DHM (1 mg/kg)): 30.0±2.8 pA and 27.9±3.0 pA | Itonic after acute EtOH (60 mM) (GABAARs; rats treated with EtOH + DHM (1 mg/kg)): 60.0±2.2 pA and 61.3±2.3 pA | mIPSC increase by acute EtOH (60 mM) (GABAARs; rats treated with EtOH + DHM): 18.0±5.9% | LORR duration remaining from DHM injection [1, 3]: 21 ± 2 min and 19 ± 1.0 min | remaining LORR, % of control (E+saline) [1, 3]: 41.2±3.8% and 42% | LORR duration (total) ([1]; DHM 1 mg/kg i.p. 30 min after EtOH i.p. (b63 prints 3 mg/kg)): 49 ± 2 min | LORR duration [1, 4]: 8 ± 4 min and 8.2 ± 4.1 min | LORR duration, % of control [1, 4]: 10.6±5.9 % of control | LORR duration, % of control ([1]; co-administration DHM 1 mg/kg i.p. with EtOH i.p.): 1.2±0.6 % of control | LORR duration ([1]; co-injection DHM 3 mg/kg and EtOH 3 g/kg i.p.): 2.7 ± 1.7 min | EtOH-induced LORR duration in female rats ([1]; female rats, combined treatment DHM 1 mg/kg i.p. with EtOH 3 g/kg i.p.): reduction | EtOH-intake ([2]; E+D/water group, DHM 0.05 mg/ml in 20% EtOH from start): 2.6 ± 0.4 g/kg/day | EtOH consumption ([2]; end of 6th week): 1.2 ± 0.2 g/kg/day | EtOH consumption ([2]; end of the 5th week): 1.8 ± 1.0 g/kg/day
